# Patent publication US11554171B2, “Compounds and methods for the targeted degradation of bromodomain-containing proteins” (Arvinas Operations, Inc., priority 2015, dated 2023)
# System: c-myc in 22RV-1 cells
# Test: Human c-myc ELISA assay
# Type: cell-based
# Settings: Homo sapiens; for Emax: 22Rv1, 18 h, read-out: Degradation of BRD4: Maximum inhibition (%) c-Myc ELISA in 22RV1 cells; for DC50: 22Rv1, read-out: Degradation of BRD4: DC50 (uM) c-Myc ELISA in 22RV1 cells
# Outline: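 c-myc levels measured by ELISA in RIPA lysates of 22RV-1 cells, calibrated with a 333-0 pg/ml standard curve. Lysates came from cells exposed for 18 h to an 8-point, 1:3 dose series starting at 300 nM or 1 μM final in 0.1% DMSO. Suppression potency given as DC50.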
DC50,SMILES,Emax
> 1 µM,Cc1ncsc1-c1ccc([C@H](C)NC(=O)[C@@H]2C[C@@H](O)CN2C(=O)[C@@H](C(C)C)n2cc(-c3cccc(O[C@H]4C[C@@H](NC(=O)C[C@@H]5N=C(c6ccc(Cl)cc6)c6c(sc(C)c6C)-n6c(C)nnc65)C4)c3)cn2)cc1 [Example 241],49.8%
< 0.01 µM,Cc1ncsc1-c1ccc([C@H](C)NC(=O)[C@@H]2C[C@@H](O)CN2C(=O)[C@H](C(C)C)n2cc(-c3cccc(O[C@H]4C[C@@H](NC(=O)C[C@@H]5N=C(c6ccc(Cl)cc6)c6c(sc(C)c6C)-n6c(C)nnc65)C4)c3)cn2)cc1 [Example 243],95.5%
0.01 to 0.1 µM,Cc1ncsc1-c1ccc([C@H](C)NC(=O)[C@@H]2C[C@@H](O)CN2C(=O)[C@@H](C(C)C)n2cc(-c3cccc(O[C@H]4C[C@H](NC(=O)C[C@@H]5N=C(c6ccc(Cl)cc6)c6c(sc(C)c6C)-n6c(C)nnc65)C4)c3)cn2)cc1 [Example 244],95.5%
0.1 to 1 µM,Cc1ncsc1-c1ccc([C@H](C)NC(=O)[C@@H]2C[C@@H](O)CN2C(=O)[C@@H](C(C)C)n2cc(-c3cc(F)cc(O[C@H]4C[C@@H](NC(=O)C[C@@H]5N=C(c6ccc(Cl)cc6)c6c(sc(C)c6C)-n6c(C)nnc65)C4)c3)cn2)cc1 [Example 246],83%
> 1 µM,Cc1ncsc1-c1ccc([C@H](C)NC(=O)[C@@H]2C[C@@H](O)CN2C(=O)[C@@H](C(C)C)n2cc(-c3ccnc(N4CC(NC(=O)C[C@@H]5N=C(c6ccc(Cl)cc6)c6c(sc(C)c6C)-n6c(C)nnc65)C4)c3)cn2)cc1 [Example 247],24.1%
0.01 to 0.1 µM,Cc1ncsc1-c1ccc([C@H](C)NC(=O)[C@@H]2C[C@@H](O)CN2C(=O)[C@H](C(C)C)n2cc(-c3ccnc(N4CC(NC(=O)C[C@@H]5N=C(c6ccc(Cl)cc6)c6c(sc(C)c6C)-n6c(C)nnc65)C4)c3)cn2)cc1 [Example 248],95.9%
< 0.01 µM,Cc1ncsc1-c1ccc([C@H](C)NC(=O)[C@@H]2C[C@@H](O)CN2C(=O)[C@H](C(C)C)n2cc(-c3cc(F)cc(O[C@H]4C[C@@H](NC(=O)C[C@@H]5N=C(c6ccc(Cl)cc6)c6c(sc(C)c6C)-n6c(C)nnc65)C4)c3)cn2)cc1 [Example 252],97.5%
> 1 µM,Cc1ncsc1-c1ccc([C@H](C)NC(=O)[C@@H]2C[C@@H](O)CN2C(=O)[C@@H](C(C)C)n2cc(-c3cc(F)cc(O[C@H]4C[C@H](NC(=O)C[C@@H]5N=C(c6ccc(Cl)cc6)c6c(sc(C)c6C)-n6c(C)nnc65)C4)c3)cn2)cc1 [Example 253],33.4%
< 0.01 µM,Cc1ncsc1-c1ccc([C@H](C)NC(=O)[C@@H]2C[C@@H](O)CN2C(=O)[C@H](C(C)C)n2cc(-c3cc(F)cc(O[C@H]4C[C@H](NC(=O)C[C@@H]5N=C(c6ccc(Cl)cc6)c6c(sc(C)c6C)-n6c(C)nnc65)C4)c3)cn2)cc1 [Example 254],95.4%

# Second part, the compound before the results:
SMILES,DC50,Emax
Cc1ncsc1-c1ccc(CNC(=O)[C@@H]2C[C@@H](O)CN2C(=O)[C@H](C(C)C)n2cc(-c3cccc(O[C@H](C)CNC(=O)C[C@@H]4N=C(c5ccc(Cl)cc5)c5c(sc(C)c5C)-n5c(C)nnc54)c3)cn2)cc1 [Example 232],0.01 to 0.1 µM,83%
Cc1ncsc1-c1ccc([C@H](C)NC(=O)[C@@H]2C[C@@H](O)CN2C(=O)[C@H](n2cc(-c3ccnc(O[C@H]4C[C@H](NC(=O)C[C@@H]5N=C(c6ccc(Cl)cc6)c6c(sc(C)c6C)-n6c(C)nnc65)C4)c3)cn2)C(C)(C)C)cc1 [Example 233],> 1 µM,26%
Cc1ncsc1-c1ccc([C@H](C)NC(=O)[C@@H]2C[C@@H](O)CN2C(=O)[C@@H](n2cc(-c3ccnc(O[C@H]4C[C@H](NC(=O)C[C@@H]5N=C(c6ccc(Cl)cc6)c6c(sc(C)c6C)-n6c(C)nnc65)C4)c3)cn2)C(C)(C)C)cc1 [Example 234],0.01 to 0.1 µM,80.6%
"Cc1ncsc1-c1ccc([C@H](C)NC(=O)[C@@H]2C[C@@H](O)CN2C(=O)[C@@H](NC(=O)Cc2ccc(N3CC[C@H](NC(=O)C[C@@H]4N=C(c5ccc(Cl)cc5)c5c(sc(C)c5C)-n5c(C)nnc54)C3)cc2)C(C)(C)C)cc1 [Example 235, (2S,4R)-1-[(2S)-2-(2-{4-[(3S)-3-{2-[(9S)-7-(4-chlorophenyl)-4,5,13-trimethyl-3-thia-1,8,11,12-tetraazatricyclo[8.3.0.0^2,^6]trideca-2(6),4,7,10,12-pentaen-9-yl]acetamido}pyrrolidin-1-yl]phenyl}acetamido)-3,3-dimethylbutanoyl]-4-hydroxy-N-[(1S)-1-[4-(4-methyl-1,3-thiazol-5-yl)phenyl]ethyl]pyrrolidine-2-carboxamide]",< 0.01 µM,97.5%
Cc1ncsc1-c1ccc([C@H](C)NC(=O)[C@@H]2C[C@@H](O)CN2C(=O)[C@@H](NC(=O)COc2ccc(N3CC[C@H](NC(=O)C[C@@H]4N=C(c5ccc(Cl)cc5)c5c(sc(C)c5C)-n5c(C)nnc54)C3)nc2)C(C)(C)C)cc1 [Example 236],0.01 to 0.1 µM,88.9%
Cc1ncsc1-c1ccc(CNC(=O)[C@@H]2C[C@@H](O)CN2C(=O)[C@@H](C(C)C)n2cc(Oc3ccc(CNC(=O)C[C@@H]4N=C(c5ccc(Cl)cc5)c5c(sc(C)c5C)-n5c(C)nnc54)cc3)cn2)cc1 [Example 237],> 1 µM,13.8%
Cc1ncsc1-c1ccc(CNC(=O)[C@@H]2C[C@@H](O)CN2C(=O)[C@H](C(C)C)n2cc(Oc3ccc(CNC(=O)C[C@@H]4N=C(c5ccc(Cl)cc5)c5c(sc(C)c5C)-n5c(C)nnc54)cc3)cn2)cc1 [Example 238],0.01 to 0.1 µM,93.3%
Cc1ncsc1-c1ccc([C@H](C)NC(=O)[C@@H]2C[C@@H](O)CN2C(=O)[C@H](n2cc(-c3ccnc(O[C@H]4C[C@@H](NC(=O)C[C@@H]5N=C(c6ccc(Cl)cc6)c6c(sc(C)c6C)-n6c(C)nnc65)C4)c3)cn2)C(C)(C)C)cc1 [Example 239],> 1 µM,39%
Cc1ncsc1-c1ccc([C@H](C)NC(=O)[C@@H]2C[C@@H](O)CN2C(=O)[C@@H](n2cc(-c3ccnc(O[C@H]4C[C@@H](NC(=O)C[C@@H]5N=C(c6ccc(Cl)cc6)c6c(sc(C)c6C)-n6c(C)nnc65)C4)c3)cn2)C(C)(C)C)cc1 [Example 240],< 0.01 µM,97%
Cc1ncsc1-c1ccc([C@H](C)NC(=O)[C@@H]2C[C@@H](O)CN2C(=O)[C@@H](NC(=O)COc2ccc(N3CC[C@@H](NC(=O)C[C@@H]4N=C(c5ccc(Cl)cc5)c5c(sc(C)c5C)-n5c(C)nnc54)C3)nc2)C(C)(C)C)cc1 [Example 242],< 0.01 µM,98%
"Cc1ncsc1-c1ccc([C@H](C)NC(=O)[C@@H]2C[C@@H](O)CN2C(=O)[C@@H](NC(=O)Cc2ccc(O[C@H]3C[C@H](NC(=O)C[C@@H]4N=C(c5ccc(Cl)cc5)c5c(sc(C)c5C)-n5c(C)nnc54)C3)cc2F)C(C)(C)C)cc1 [Example 249, (2S,4R)-1-[(2S)-2-(2-{2-fluoro-4-[(1r,3r)-3-{2-[(9S)-7-(4-chlorophenyl)-4,5,13-trimethyl-3-thia-1,8,11,12-tetraazatricyclo[8.3.0.0^2,^6]trideca-2(6),4,7,10,12-pentaen-9-yl]acetamido}cyclobutoxy]phenyl}acetamido)-3,3-dimethylbutanoyl]-4-hydroxy-N-[(1S)-1-[4-(4-methyl-1,3-thiazol-5-yl)phenyl]ethyl]pyrrolidine-2-carboxamide]",< 0.01 µM,98.5%
Cc1sc2c(c1C)C(c1ccc(Cl)cc1)=N[C@@H](CC(=O)N[C@H]1C[C@H](Oc3ccc(CC(=O)N[C@H](C(=O)N4C[C@H](O)C[C@H]4C(=O)N[C@@H](C)c4ccc(-c5cnnn5C)cc4)C(C)(C)C)cc3)C1)c1nnc(C)n1-2 [Example 250],> 1 µM,16.1%
"Cc1ncsc1-c1ccc([C@H](C)NC(=O)[C@@H]2C[C@@H](O)CN2C(=O)[C@@H](NC(=O)COc2ccc(N3CC(NC(=O)C[C@@H]4N=C(c5ccc(Cl)cc5)c5c(sc(C)c5C)-n5c(C)nnc54)C3)nc2)C(C)(C)C)cc1 [Example 251, (2S,4R)-1-[(2S)-2-(2-{[6-(3-{2-[(9S)-7-(4-chlorophenyl)-4,5,13-trimethyl-3-thia-1,8,11,12-tetraazatricyclo[8.3.0.0^2,^6]trideca-2(6),4,7,10,12-pentaen-9-yl]acetamido}azetidin-1-yl)pyridin-3-yl]oxy}acetamido)-3,3-dimethylbutanoyl]-4-hydroxy-N-[(1S)-1-[4-(4-methyl-1,3-thiazol-5-yl)phenyl]ethyl]pyrrolidine-2-carboxamide]",< 0.01 µM,92.3%
Cc1ncsc1-c1ccc([C@H](C)NC(=O)[C@@H]2C[C@@H](O)CN2C(=O)[C@@H](C(C)C)n2cc(-c3ccc(N4CC(NC(=O)C[C@@H]5N=C(c6ccc(Cl)cc6)c6c(sc(C)c6C)-n6c(C)nnc65)C4)nc3)cn2)cc1 [Example 255],> 1 µM,35.5%
Cc1ncsc1-c1ccc([C@H](C)NC(=O)[C@@H]2C[C@@H](O)CN2C(=O)[C@@H](NC(=O)CO[C@H]2C[C@H](OCCNC(=O)C[C@@H]3N=C(c4ccc(Cl)cc4)c4c(sc(C)c4C)-n4c(C)nnc43)C2)C(C)(C)C)cc1 [Example 256],< 0.01 µM,89.5%
"Cc1ncsc1-c1ccc([C@H](C)NC(=O)[C@@H]2C[C@@H](O)CN2C(=O)[C@@H](NC(=O)CN2CCC(O[C@H]3C[C@@H](NC(=O)C[C@@H]4N=C(c5ccc(Cl)cc5)c5c(sc(C)c5C)-n5c(C)nnc54)C3)CC2)C(C)(C)C)cc1 [Example 257, (2S,4R)-1-[(2S)-3,3-dimethyl-2-(2-{4-[(1,3-cis)-3-{2-[(9S)-7-(4-chlorophenyl)-4,5,13-trimethyl-3-thia-1,8,11,12-tetraazatricyclo[8.3.0.0^2,^6]trideca-2(6),4,7,10,12-pentaen-9-yl]acetamido}cyclobutoxy]piperidin-1-yl}acetamido)butanoyl]-4-hydroxy-N-[(1S)-1-[4-(4-methyl-1,3-thiazol-5-yl)phenyl]ethyl]pyrrolidine-2-carboxamide]",0.01 to 0.1 µM,87%
